What was measured:
Assay type in all cases: in vivo
Sorghum = assay: Pre-emergence test/Greenhouse, Sorghum; settings: after three weeks
How it was run: (§1)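 First, compound is formulated with solvent and emulsifier and diluted with water. Next, soil sown with seeds is watered with it after about 24 h, at a fixed water amount per area. Finally, damage is rated at three weeks in % against untreated controls.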

weeds = assay: Pre-emergence test (greenhouse), activity against weeds; settings: in words
How it was run: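 Three weeks after treatment, % damage relative to untreated plants is scored, 0% meaning no effect. Seeds in normal soil received, roughly one day post-sowing, an aqueous dilution of an acetone/emulsifier concentrate, with the rate per unit area, not concentration, being the relevant dose.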

Matricaria = assay: Pre-emergence test/Greenhouse, Matricaria; settings: after three weeks
How it was run: as §1

Ambrosia = assay: Pre-emergence test/Greenhouse, Ambrosia; settings: after three weeks
How it was run: as §1

Soya beans = assay: Pre-emergence test/Greenhouse, Soya beans; settings: in vivo
Protocol: To produce a suitable preparation of the active compound, 1 part by weight of active compound is mixed with the stated amount of solvent, the stated amount of emulsifier is added and the concentrate is diluted with water to the desired concentration.
Seeds of the test plants are sown in normal soil. After about 24 hours, the soil is watered with the preparation of active compound. Advantageously, the amount of water per unit area is kept constant. The active compound concentration in the preparation is not important, only the active compound appliation rate per unit area matters.
After three weeks, the degree of damage to the plants is rated in % damage in comparison to the development of the untreated control.
0%=no action (like untreated control)

Solanum = assay: Pre-emergence test/Greenhouse, Solanum; settings: after three weeks
How it was run: as §1

Maize = assay: Pre-emergence test/Greenhouse, Maize; settings: in vivo
How it was run: as §1

Poa = assay: Pre-emergence test/Greenhouse, Poa; settings: after three weeks
How it was run: as §1

Lolium = assay: Pre-emergence test/Greenhouse, Lolium; settings: after three weeks
How it was run: as §1

Structure (SMILES) | activity against weeds (weeds) | degree of damage to the plants (% damage vs untreated control), Soya beans (Soya beans) | degree of damage to the plants (% damage vs untreated control), Maize (Maize) | degree of damage to the plants (% damage vs untreated control), Sorghum (Sorghum; 125 g of ai./ha) | degree of damage to the plants (% damage vs untreated control), Matricaria (Matricaria; 125 g of ai./ha) | degree of damage to the plants (% damage vs untreated control), Ambrosia (Ambrosia; 125 g of ai./ha) | degree of damage to the plants (% damage vs untreated control), Solanum (Solanum; 125 g of ai./ha) | degree of damage to the plants (% damage vs untreated control), Poa (Poa; 125 g of ai./ha) | degree of damage to the plants (% damage vs untreated control), Lolium (Lolium; 125 g of ai./ha) | also measured
CSc1nn(C(=O)NS(=O)(=O)c2c(C)cccc2C(=O)OC(C)C)c(=O)n1C [Example 8] | very strong activity against weeds | 0% | 30% |  |  |  |  |  |  | degree of damage to the plants (% damage vs untreated control), Sorghum (Sorghum; 60 g of ai./ha): 80%; degree of damage to the plants (% damage vs untreated control), Matricaria (Matricaria; 60 g of ai./ha): 95%; degree of damage to the plants (% damage vs untreated control), Ambrosia (Ambrosia; 60 g of ai./ha): 90%; degree of damage to the plants (% damage vs untreated control), Solanum (Solanum; 60 g of ai./ha): 95%; degree of damage to the plants (% damage vs untreated control), Poa (Poa; 60 g of ai./ha): 90%; degree of damage to the plants (% damage vs untreated control), Lolium (Lolium; 60 g of ai./ha): 95%
CCOC(=O)c1cccc(C)c1S(=O)(=O)NC(=O)c1noc(C)n1 [Example 10] | very strong activity against weeds | 20% | 0% |  |  |  |  |  |  | degree of damage to the plants (% damage vs untreated control), Sorghum (Sorghum; 250 g of ai./ha): 70%; degree of damage to the plants (% damage vs untreated control), Matricaria (Matricaria; 250 g of ai./ha): 95%; degree of damage to the plants (% damage vs untreated control), Ambrosia (Ambrosia; 250 g of ai./ha): 95%; degree of damage to the plants (% damage vs untreated control), Solanum (Solanum; 250 g of ai./ha): 95%; degree of damage to the plants (% damage vs untreated control), Poa (Poa; 250 g of ai./ha): 90%; degree of damage to the plants (% damage vs untreated control), Lolium (Lolium; 250 g of ai./ha): 80%
Cc1nc(C(=O)NS(=O)(=O)c2c(C)cccc2C(=O)OC(C)C)no1 [Example 12] | very strong activity against weeds | 0% | 0% | 60% | 95% | 95% | 95% | 80% | 80% | 
Cc1cccc(C(=O)OC(C)C)c1S(=O)(=O)NC(=O)n1nc(OC(C)C)n(C)c1=O [Example 18] | very strong activity against weeds | 0% | 10% |  |  |  |  |  |  | degree of damage to the plants (% damage vs untreated control), Sorghum (Sorghum; 60 g of ai./ha): 90%; degree of damage to the plants (% damage vs untreated control), Matricaria (Matricaria; 60 g of ai./ha): 95%; degree of damage to the plants (% damage vs untreated control), Ambrosia (Ambrosia; 60 g of ai./ha): 95%; degree of damage to the plants (% damage vs untreated control), Solanum (Solanum; 60 g of ai./ha): 95%; degree of damage to the plants (% damage vs untreated control), Poa (Poa; 60 g of ai./ha): 95%; degree of damage to the plants (% damage vs untreated control), Lolium (Lolium; 60 g of ai./ha): 80%
CCCOC(=O)c1cccc(C)c1S(=O)(=O)NC(=O)n1nc(OC)n(C)c1=O [Example 20] | very strong activity against weeds | 0% | 10% | 90% | 95% | 95% | 95% | 95% | 95% | 
CCCOC(=O)c1cccc(C)c1S(=O)(=O)NC(=O)n1nc(OCC)n(C)c1=O [Example 21] | very strong activity against weeds | 0% | 0% | 95% | 95% | 95% | 95% | 95% | 95% | 
CCCOC(=O)c1cccc(C)c1S(=O)(=O)NC(=O)n1nc(OCCC)n(C)c1=O [Example 22] | very strong activity against weeds | 10% | 20% | 80% | 95% | 95% | 95% | 95% | 95% | 
CCCOC(=O)c1cccc(C)c1S(=O)(=O)NC(=O)n1nc(OC(C)C)n(C)c1=O [Example 23] | very strong activity against weeds | 0% | 0% | 60% | 95% | 90% | 90% | 80% |  | 
CCSc1nn(C(=O)NS(=O)(=O)c2c(C)csc2C(=O)OC)c(=O)n1C [Example 34] | very strong activity against weeds | 0% | 10% |  |  |  |  |  |  | degree of damage to the plants (% damage vs untreated control), Sorghum (Sorghum; 60 g of ai./ha): 80%; degree of damage to the plants (% damage vs untreated control), Matricaria (Matricaria; 60 g of ai./ha): 95%; degree of damage to the plants (% damage vs untreated control), Ambrosia (Ambrosia; 60 g of ai./ha): 90%; degree of damage to the plants (% damage vs untreated control), Solanum (Solanum; 60 g of ai./ha): 90%; degree of damage to the plants (% damage vs untreated control), Poa (Poa; 60 g of ai./ha): 70%; degree of damage to the plants (% damage vs untreated control), Lolium (Lolium; 60 g of ai./ha): 60%
CCCOC(=O)c1cccc(C)c1S(=O)(=O)NC(=O)n1nc(CCC)n(C)c1=O [Example 47] | very strong activity against weeds | 10% | 10% | 60% | 95% | 95% | 95% | 90% | 90% | 
C#CCSc1nn(C(=O)NS(=O)(=O)c2c(C)csc2C(=O)OC)c(=O)n1C [Example 51] | very strong activity against weeds | 30% | 0% | 80% | 95% | 95% | 95% | 80% | 80% | 
CCOC(=O)c1scc(C)c1S(=O)(=O)NC(=O)n1nc(C(C)C)n(C)c1=O [Example 68] | very strong activity against weeds | 10% | 5% | 60% | 100% | 95% | 95% | 90% | 80% | 
CCOc1nn(C(=O)NS(=O)(=O)c2c(Cl)cccc2C(=O)OC)c(=O)n1C [Example 129] | very strong activity against weeds | 10% | 10% |  |  |  |  |  |  | degree of damage to the plants (% damage vs untreated control), Sorghum (Sorghum; 250 g of ai./ha): 90%; degree of damage to the plants (% damage vs untreated control), Matricaria (Matricaria; 250 g of ai./ha): 90%; degree of damage to the plants (% damage vs untreated control), Ambrosia (Ambrosia; 250 g of ai./ha): 60%; degree of damage to the plants (% damage vs untreated control), Solanum (Solanum; 250 g of ai./ha): 95%; degree of damage to the plants (% damage vs untreated control), Poa (Poa; 250 g of ai./ha): 95%; degree of damage to the plants (% damage vs untreated control), Lolium (Lolium; 250 g of ai./ha): 95%
COC(=O)c1cccc(Cl)c1S(=O)(=O)NC(=O)n1nc(SC)n(C)c1=O [Example 130] | very strong activity against weeds | 0% | 10% |  |  |  |  |  |  | degree of damage to the plants (% damage vs untreated control), Sorghum (Sorghum; 250 g of ai./ha): 80%; degree of damage to the plants (% damage vs untreated control), Matricaria (Matricaria; 250 g of ai./ha): 95%; degree of damage to the plants (% damage vs untreated control), Ambrosia (Ambrosia; 250 g of ai./ha): 95%; degree of damage to the plants (% damage vs untreated control), Solanum (Solanum; 250 g of ai./ha): 95%; degree of damage to the plants (% damage vs untreated control), Poa (Poa; 250 g of ai./ha): 95%; degree of damage to the plants (% damage vs untreated control), Lolium (Lolium; 250 g of ai./ha): 95%
COC(=O)c1cccc(C)c1S(=O)(=O)NC(=O)n1nc(OCC(F)(F)F)n(C)c1=O [Example 143] | very strong activity against weeds | 0% | 20% |  |  |  |  |  |  | degree of damage to the plants (% damage vs untreated control), Sorghum (Sorghum; 60 g of ai./ha): 90%; degree of damage to the plants (% damage vs untreated control), Ambrosia (Ambrosia; 60 g of ai./ha): 80%; degree of damage to the plants (% damage vs untreated control), Solanum (Solanum; 60 g of ai./ha): 90%; degree of damage to the plants (% damage vs untreated control), Poa (Poa; 60 g of ai./ha): 90%; degree of damage to the plants (% damage vs untreated control), Lolium (Lolium; 60 g of ai./ha): 90%

From patent publication US6441195B1, “Substituted sulphonylamino(thio) carbonyl compounds” (Bayer Aktiengesellschaft, priority 1995, dated 2002)
